Results from patent US20220127297A1, “Novel Antibacterial 3"-Derivatives Of 4,6-Disubstituted 2,5-Dideoxystreptamine Aminoglycoside Antibiotics” (AGILeBiotics B.V., priority 2018, published 2022).
In brackets after ≈: the same amount, converted by molar mass. Read-outs that look alike come from different tables or passages of the source.

Tests used:
K. pneumoniae DSM 26371 = test: MIC 50, broth micro-dilution, DSM strains; assay type: cell-based, Klebsiella pneumoniae
Description: (§1) 3.2 Against Selected Bacteria of the ESKAPE Panel and Enterococcus faecalis (DSM Strains)
(§2) Tested reference compounds. Amikacin sulfate (Cat. No. 01693, Chem-Impex), Gentamicin sulfate (Cat. No. G4918, Sigma Aldrich).
(§3) Microbial strains. Enterococcus faecalis DSM 2570, Klebsiella pneumoniae DSM 26371, Acinetobacter baumannii DSM 105126, Enterobacter cloacae 3MRGN (clinical bronchial aspirate isolate).
(§4) Culture media and equipment. BBL™ Mueller Hinton Broth 2 (Lot. BCBW1143, Cat. No. 70192, Sigma); Trypcase Soy Blood-agar plates (Cat. No. 43001, Biomérieux); Cryoinstant (contains 15% glycerol; Cat. No. 822070ZA, VWR International); GasPak™ EZ Standard Incubation Container (Cat. No. 260671, Becton Dickinson); GasPak™ EZ Campy Container System Sachets (Cat. No. 260680, Becton Dickinson); 96-well deep well plate, 1 mL (Cat. No. 0030506.200, Eppendorf); Plate lid (Cat. No. 0030131.525, Eppendorf); 96-well plate, F-bottom (Cat. No. 260860, Nunc); Incubator (Sartorius Certomat BS-1); Laminar flow (Heraeus HS12); UV/VIS meter (Perkin Elmer Lambda Bio+); Platereader (Tecan Infinite M200 Pro).
(§5) Compound preparation. Compounds were prepared in MH2 media at a concentration of 5 mM and stored at 4° C. For testing, solutions of 128 μM were prepared in MH2, for tests against E. faecalis a solution of 512 μM was prepared. Out of these working solutions, 400 μL was transferred to wells in the first column of 96-well deep well plates. Each compound was transferred in triplicate. Plates were previously filled with 200 μL of MH2 media in all wells except for the wells in the first column. After compound and antibiotic addition, the compounds were serial two-fold diluted by transferring 200 μL from the first to the second column, then from the second to the third column and so on. Finally, 200 μL was removed from the last column.
(§6) Inoculum preparation. Microorganisms used were all revived from 15% glycerol storage in Croinstant tubes at −28° C. by plating them on blood agar plates. A. baumanni, and E. cloacae were grown aerobically at 37° C., E. faecalis was grown microaerophilically at 37° C., and K. pneumoniae was grown aerobically at 37° C. Plates were stored at 4° C. for up to two weeks, after which new plates were prepared from −28° C. A single colony was inoculated in MH2 media and grown at 37° C. and 200 rpm to an optical density (measured by UV/Vis spectroscopy) of 0.6-0.8 at 600 nm. Out of these suspensions, actual inoculums were prepared by diluting them to an optical density of 0.1 in MH2 media. From these inoculums, 200 μL was transferred to each well, resulting in a final compound concentration range of 64 μM-31.3 nM for, K. pneumoniae, A. baumanni, and E. cloacae, and 256 μM-125 nM for E. faecalis. Plates inoculated with E. faecalis were placed inside a GasPak™ Container System with GasPak™ Campy Container System sachets. All plates were incubated at 200 rpm for 18 h under the microorganism culturing conditions mentioned above.
(§7) MIC determination. After 18 h of growth, 200 μL was transferred to a 96-well F-bottom plate. The optical density was determined by a plate reader at 600 nm, with 10 s shaking before reading. Triplicate measurements were averaged, and a growth curve was plotted in Excel. The first column in which the growth reached half the value of maximum growth was determined as the MIC50 value for that particular compound.
(§8) MIC50. The MIC50 of a compound was assigned at which the bacterial growth reached half the value of maximum growth.

A. baumannii DSM 105126 = test: MIC 50, broth micro-dilution, DSM strains; assay type: cell-based, Acinetobacter baumannii
Description: as §1, §2, §3, §4, §5, §6, §7, §8

[1] = Klebsiella pneumoniae, DSM26371, K. pneumoniae DSM 26371, read-out: MIC 50
[2] = Acinetobacter baumannii, DSM105126, read-out: MIC 50

Row | SMILES | MIC50 (K. pneumoniae DSM 26371; [1]) [µM] | MIC50 (A. baumannii DSM 105126; [2]) [µM] | MIC50 (K. pneumoniae DSM 26371; K. pneumoniae DSM 26371) [µM] | MIC50 (A. baumannii DSM 105126) [µM]
1 | N=C(NCCO)NC1[C@@H](O)C(OC2[C@@H](F)[C@H](O[C@H]3OC(CN)[C@@H](O)CC3N)C(N)C[C@H]2NC(=O)[C@@H](O)CCN)O[C@H](CO)[C@H]1O (some centres unmarked) [ABX5029, Tobra-AHB-F-Gua 2-hydroxy-ethyl] | 0.125 to 0.25 (≈ 0.0821 to 0.164 µg/mL) | 0.0625 (≈ 0.041 µg/mL) |  | 
2 | NCC[C@H](O)C(=O)N[C@@H]1CC(N)[C@@H](O[C@H]2OC(CN)[C@@H](O)CC2N)[C@H](F)C1OC1O[C@H](CO)[C@@H](O)C(N)[C@H]1O (some centres unmarked) [ABX5024, Tobra-AHB-F] |  |  | 1 (≈ 0.571 µg/mL) | 0.125 (≈ 0.0713 µg/mL)
3 | N=C(NC[C@H]1CNCCO1)NC1[C@@H](O)C(OC2[C@@H](F)[C@H](O[C@H]3OC(CN)[C@@H](O)CC3N)C(N)C[C@H]2NC(=O)[C@@H](O)CCN)O[C@H](CO)[C@H]1O (stereo partly drawn) [ABX5043, Tobra-AHB-F-Gua (R) morpholin-2-yl methyl] | 0.5 (≈ 0.356 µg/mL) | 0.0625 to 0.125 (≈ 0.0445 to 0.089 µg/mL) |  | 
4 | N=C(NCc1ccncc1)NC1[C@@H](O)C(OC2[C@@H](F)[C@H](O[C@H]3OC(CN)[C@@H](O)CC3N)C(N)C[C@H]2NC(=O)[C@@H](O)CCN)O[C@H](CO)[C@H]1O (some centres unmarked) [ABX5048, Tobra-AHB-F-Gua pyridin-4-yl methyl] | 0.5 (≈ 0.352 µg/mL) | 0.5 (≈ 0.352 µg/mL) |  | 
5 | NCC[C@H](O)C(=O)N[C@@H]1C[C@H](N)[C@@H](O[C@H]2O[C@H](CN)[C@@H](O)[C@H](O)[C@H]2O)[C@H](O)[C@H]1O[C@H]1O[C@H](CO)[C@@H](O)[C@H](N)[C@H]1O [Amikacin, amikacin, reference compound] | 0.5 (≈ 0.293 µg/mL) | 0.5 (≈ 0.293 µg/mL) |  | 
6 | N=C(NC[C@@H]1CCNC1)NC1[C@@H](O)C(OC2[C@@H](F)[C@H](O[C@H]3OC(CN)[C@@H](O)CC3N)C(N)C[C@H]2NC(=O)[C@@H](O)CCN)O[C@H](CO)[C@H]1O (stereo partly drawn) [ABX5039, Tobra-AHB-F-Gua (R) pyrrolidine-3-ylmethyl] | 0.5 (≈ 0.348 µg/mL) | 0.0625 (≈ 0.0435 µg/mL) |  | 
7 | N=C(NCC1CCOC1)NC1[C@@H](O)C(OC2[C@@H](F)[C@H](O[C@H]3OC(CN)[C@@H](O)CC3N)C(N)C[C@H]2NC(=O)[C@@H](O)CCN)O[C@H](CO)[C@H]1O (some centres unmarked) [ABX5051, Tobra-AHB-F-Gua tetrahydrofuran-3-yl methyl] | 0.5 (≈ 0.348 µg/mL) | 0.5 (≈ 0.348 µg/mL) |  | 
8 | NCCC(O)C(=O)NC1CC(N)C(OC2OC(CN)C(O)C(O)C2N)C(F)C1OC1OC(CO)C(O)C(N)C1O (centres unmarked) [ABX4007, KanaB-AHB-F] |  |  | 0.5 (≈ 0.293 µg/mL) | 0.5 (≈ 0.293 µg/mL)
9 | C[C@@H](N)CCNC(=N)NC1[C@@H](O)C(OC2[C@@H](F)[C@H](O[C@H]3OC(CN)[C@@H](O)CC3N)C(N)C[C@H]2NC(=O)[C@@H](O)CCN)O[C@H](CO)[C@H]1O (stereo partly drawn) [ABX5047, Tobra-AHB-F-Gua (R) 3-amino-butyl] | 0.25 (≈ 0.171 µg/mL) | 0.125 (≈ 0.0855 µg/mL) |  | 
10 | N=C(N)NC1[C@@H](O)C(OC2[C@@H](F)[C@H](O[C@H]3OC(CNCCO)[C@@H](O)CC3N)C(N)C[C@H]2NC(=O)[C@@H](O)CCN)O[C@H](CO)[C@H]1O (some centres unmarked) [ABX5045, 6N-2-hydroxy-ethyl-Tobra-AHB-F-Gua] | 0.5 (≈ 0.328 µg/mL) | 0.5 (≈ 0.328 µg/mL) |  | 
11 | N=C(NC[C@@H]1CCCN1)NC1[C@@H](O)C(OC2[C@@H](F)[C@H](O[C@H]3OC(CN)[C@@H](O)CC3N)C(N)C[C@H]2NC(=O)[C@@H](O)CCN)O[C@H](CO)[C@H]1O (stereo partly drawn) [ABX5026, Tobra-AHB-F-Gua (S) pyrrolidine-2-yl-methyl] | 0.125 (≈ 0.087 µg/mL) | 0.0312 to 0.0625 (≈ 0.0217 to 0.0435 µg/mL) |  | 
12 | CNCCNC(=N)NC1[C@@H](O)C(OC2[C@@H](F)[C@H](O[C@H]3OC(CN)[C@@H](O)CC3N)C(N)C[C@H]2NC(=O)[C@@H](O)CCN)O[C@H](CO)[C@H]1O (some centres unmarked) [ABX5038, Tobra-AHB-F-Gua 2-(methylamino)ethyl] | 0.5 (≈ 0.335 µg/mL) | 0.0625 to 0.125 (≈ 0.0419 to 0.0837 µg/mL) |  | 
13 | N=C(N)NC1[C@@H](O)C(OC2[C@@H](F)[C@H](O[C@H]3OC(CN)[C@@H](O)[C@H](O)C3N)C(N)C[C@H]2NC(=O)[C@@H](O)CCN)O[C@H](CO)[C@H]1O (some centres unmarked) [ABX4006, KanaB-AHB-F-Gua] | 0.125 (≈ 0.0786 µg/mL) | 0.125 (≈ 0.0786 µg/mL) |  | 
